Reference: article PMC11189382, “Structural basis of connexin-36 gap junction channel inhibition” (Cell Discovery, 2024)

Assays:
Cx36 [1] = target: T1, Cx36 (Homo sapiens, UniProt Q9UKL4); assay: cryo-EM structure of the complex; format: binding; conditions: detergent, pore pocket between TM1 and TM2 at interface of two monomers
T1 construct: gene GJD2; purified in detergent; gap junction channel of docked hexameric hemichannels
T1 sequence (Q9UKL4 1-321): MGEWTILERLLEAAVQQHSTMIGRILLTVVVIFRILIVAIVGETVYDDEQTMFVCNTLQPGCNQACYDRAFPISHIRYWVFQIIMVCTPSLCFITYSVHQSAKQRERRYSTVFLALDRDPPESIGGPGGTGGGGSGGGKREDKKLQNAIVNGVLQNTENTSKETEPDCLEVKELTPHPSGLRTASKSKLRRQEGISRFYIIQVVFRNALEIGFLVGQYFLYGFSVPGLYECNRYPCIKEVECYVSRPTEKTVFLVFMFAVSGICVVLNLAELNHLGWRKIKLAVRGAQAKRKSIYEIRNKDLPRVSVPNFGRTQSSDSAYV

Cx36 [2] = target: T1, Cx36; assay: ligand binding assay with purified Cx36

**Q.** With `OC(c1cc(C(F)(F)F)nc2c(C(F)(F)F)cccc12)C1CCCCN1` (racemic) [mefloquine] as the molecule, how does the “cryo-EM structure of the complex” value (Cx36 [1]; 1 mM racemic drug) read?
**A.** although we used a racemic mixture of the drug, the high-resolution structure captured the S/R-enantiomer

**Q.** And the Kd (Cx36 [2])?
**A.** 10.4 ± 1.3 µM

**Q.** What does the source list for `C=C[C@H]1CN2CC[C@H]1C[C@@H]2[C@@H](O)c1ccnc2ccc(OC)cc12` [quinidine]?
**A.** cryo-EM structure of the complex (Cx36 [1]; 1 mM drug): Cx36–quin, and Cx36–quid feature additional densities, corresponding to six bound drugs per Cx36 hexamer; Kd (Cx36 [2]): 58 ± 9 µM

**Q.** With `C=C[C@H]1CN2CC[C@H]1C[C@H]2[C@H](O)c1ccnc2ccc(OC)cc12` [quinine] as the molecule, how does the “cryo-EM structure of the complex” value (Cx36 [1]; 1 mM drug) read?
**A.** Cx36–quin, and Cx36–quid feature additional densities, corresponding to six bound drugs per Cx36 hexamer

**Q.** What about the Kd (Cx36 [2]) of the same molecule?
**A.** 29 ± 5.3 µM
